Legend:
[1] = tested on: RPE1-hTERT-ΔTP53 STAG2 KO cells; test: Colony formation (crystal violet) survival of STAG2-KO cells; type: cell-based, human; settings: 10 days treatment, 6-well plate
Method: RPE1-hTERT-ATP53-STAG2 KO cells were seeded in 6-well plate format and treated with the indicated dose of compound 121 for 10 days. Cells were then fixed and stained using a crystal violet-methanol solution. Colonies were counted, and percentage of survival was determined by normalizing the number of colonies after treatment to the number of colonies in the non-treated conditions.
To assess the impact of STAG2 deficiency in the response to ATRi, we generated RPE1-hTERT-ΔTP53 deficient for STAG2 by knocking out the gene using CRISPR-Cas9. To avoid potential off-target effects, two distinct sgRNA were used to generate each KO clone.

[2] = tested on: triple-negative breast cancer (TNBC) PDX tumors with RNASEH2B IHC loss; test: TNBC PDX tumor growth with RNASEH2B IHC loss; type: in vivo
Method: FIG. 8A: Growth of subcutaneously implanted triple-negative breast cancer (TNBC) PDX tumors with RNASEH2B IHC loss in immunodeficient mice. Mice were treated by oral gavage with either vehicle or indicated doses of compound 121 once daily at a 3 day on/4 day off intermittent weekly schedule. Data are shown as mean±SEM. N=9 mice/group.
FIG. 8B: Immunohistochemical (IHC) staining of the PDX model from FIG. 8A (top) and a control, RNase H2-proficient PDX (bottom) with an RNase H2-specific antibody.
(§1) To confirm that RNase H2-deficiency sensitizes to ATRi treatment also in vivo, we developed the isogenic 5637 RNASEH2B+/+ and RNASEH2B−/− bladder carcinoma cell lines as subcutaneous xenografts in immunodeficient mice and treated them with compound 121 or a vehicle control. […] Furthermore, we identified a patient-derived xenograft (PDX) of a triple negative breast cancer, that was RNase H2-deficient as confirmed by immunohistochemistry with a RNase H2-specific antibody.

[3] = tested on: RPE1 Cas9 TP53−/− cells; test: CellTiter Glo viability after sgRNA inactivation of RAD51B, RAD51C or RAD51D; type: cell-based, human
Method: (§2) FIG. 9A: compound 121 dose-response curves of RPE1 Cas9 TP53−/− cells transduced with either a control sgRNA (sgAAVS1) or two sgRNAs targeting RAD51B. Cell viability was determined with a CellTiter Glo assay. Open symbols show mean viability from three independent experiments±SD. Solid lines represent a non-linear least square fit to a four-parameter dose-response model.
as §2, with “9B:” for “9A:”, “RAD51C.” for “RAD51B.”
as §2, with “9C:” for “9A:”, “RAD51D.” for “RAD51B.”
To determine the impact of RAD51B, RAD51C or RAD51D deficiency on ATRi sensitivity we individually inactivated these genes in Cas9-expressing RPE1-hTERT-ΔTP53 cells using two independent sgRNAs per gene.

[4] = tested on: RNASEH2B wild-type (+/+) and knockout (−/−) 5637 cells; test: CellTiter Glo viability, isogenic RNASEH2B +/+ and -/- 5637 cells; type: cell-based, human
Method: FIG. 6B: Dose-response curves of isogenic RNASEH2B wild-type (+/+) and knockout (−/−) 5637 cells treated with compound 121. Cell viability was measured by CellTiter Glo assays. Open symbols represent mean from three independent experiments±SD. Solid lines show a non-linear least square fit to a four-parameter dose-response model. […] Approximately a 4× shift in IC50 was observed.
The RNase H2 protein complex is composed of three subunits encoded by the RNASEH2A, RNASEH2B and RNASEH2C genes in a manner, where all three subunits are required for the complex' stability and activity. To determine whether RNase H2 deficiency increases cellular sensitivity to ATRi, we inactivated the RNASEH2B gene in two human cell lines, RPE1-hTERT-ΔTP53 and 5637, using CRISPR/Cas9 (note that this leads to complete loss of the RNase H2 complex).

[5] = tested on: SETD2 wild-type and SETD2-mutated (LOF) renal and colorectal carcinoma cell lines; test: CellTiter Glo viability in SETD2 WT and LOF cell line panel; type: cell-based; settings: three SETD2-deficient vs six SETD2-proficient lines; 4-8 population doublings; on average
Text: FIG. 4A: Representative immunoblot showing SETD2 expression in whole-cell extracts from six SETD2 wild-type (WT) renal and colorectal carcinoma cell lines and loss of SETD2 in three SETD2-mutated (LOF) cell lines. Vinculin was used as a loading control.
FIG. 4B: compound 121 IC50 values from CellTiter Glo viability assays of SETD2 WT and LOF cell lines treated with compound 121 for 4-8 population doublings. Circles represent mean IC50 values from ≥3 independent experiments. Bars, mean of each cohort (WT or LOF); error bars, ±SD.
To study whether SETD2 deficiency leads to ATRi sensitivity in a more clinically relevant context, we assembled a panel of six SETD2-proficient and three SETD2-deficient renal clear cell carcinoma and colorectal carcinoma cell lines (FIG. 4A) and treated them with compound 121.

[6] = tested on: 5637 RNASEH2B+/+ bladder cancer cell line tumors; test: Subcutaneous xenograft tumor growth, 5637 RNASEH2B+/+; type: in vivo, mice; settings: oral gavage once daily, 2 day on/4 day off weekly schedule
Method: FIG. 7A: Growth of subcutaneously grafted 5637 RNASEH2B+/+ bladder cancer cell line tumors in immunodeficient mice. Mice were treated by oral gavage with either vehicle or indicated doses of compound 121 once daily at a 2 day on/4 day off weekly schedule. Data are shown as mean±SEM. N=8 mice/group.
as §1

C[C@@H]1COCCN1c1cc([C@]2(O)C[C@H]3CC[C@@H](C2)O3)c2cnn(-c3cc[nH]n3)c2n1 [compound 121]
Cell death / percentage of survival by colony formation, STAG2-KO vs WT [1]: induces cell death preferentially in STAG2-KO cells | Tumor response at the maximum tolerated dose ([2]; maximum tolerated dose, oral gavage, 3 day on/4 day off): tumor regressions | Response of PDX model to treatment ([2]; oral gavage once daily, 3 day on/4 day off weekly schedule): responsive | Sensitization upon gene inactivation (CTG viability) ([3]; two sgRNAs targeting RAD51B vs sgAAVS1): sensitized cells to compound 121 treatment to a comparable extent | Sensitization upon gene inactivation (CTG viability) ([3]; two sgRNAs targeting RAD51C vs sgAAVS1): sensitized cells to compound 121 treatment to a comparable extent | Sensitization upon gene inactivation (CTG viability) ([3]; two sgRNAs targeting RAD51D vs sgAAVS1): sensitized cells to compound 121 treatment to a comparable extent | Sensitivity of RNase H2-deficient vs wild-type cells [4]: more sensitive | Sensitivity (CTG IC50) of SETD2-deficient vs SETD2-proficient cell lines [5]: SETD2-deficient cell lines were more sensitive | Efficacy on tumor growth [6]: no efficacy

— US20250228862A1, “METHODS OF USING ATR INHIBITORS” (Repare Therapeutics Inc., priority 2022, published 2025)
